Bridge positions count the residues as written; N and C are the ends. Square brackets hold non-standard residues; d marks the D form. Peptide text beside a SMILES is read from it. S5 = C=CCCC[C@](C)(N)C(=O)O
Legend:
[1] = α-helix ratio of polypeptides by circular dichroism; type: physicochemical; conditions: PBS solution, 1 mg/mL
Method: The α-helix ratio of the polypeptide was measured by a circular dichromatograph (purchased from Jasco, Japan). The polypeptides MR2, S1, S2, S3, S4, S5, S6, S7, S8, S9, S10 and S11 prepared in Example 1 were dissolved in PBS solution, and the working concentration of the circular dichromatograph was adjusted to 1 mg/mL. […] Among them, the α-helix ratio refers to the percentage of the number of peptide segments of the polypeptide that maintains the alpha helix of the secondary structure in the peptide segments of the total polypeptide.

[2] = tested on: mice with bleomycin-induced pulmonary fibrosis; assay: Survival rate of mice with bleomycin-induced pulmonary fibrosis; type: in vivo, C57BL/6 mice; conditions: twice a week
Method: (§1) Male C57BL/6 mice were fasted overnight, then anesthetized with 45 mg/kg sodium pentobarbital by injection intraperitoneally (i.p.), and intratracheally injected with bleomycin at a dose of 3 U/kg. The specific operation steps are as follows: cut the neck skin of the mouse with as little trauma as possible, expose the trachea with the assistance of elbow ophthalmic forceps, puncture the trachea and inject about 50 μL of bleomycin into the trachea with a microsyringe, rotate the mouse quickly and stand it upright for 5 minutes in order to make bleomycin evenly enter the left and right lobe, thereby constructing an animal model. The whole operation was performed at a surgical table at about […]. Mice in the sham operation group were intratracheally injected with an equal amount of physiological saline for injection.
The animal model with pulmonary fibrosis was prepared according to the method described in Example 2. The peptide therapy was started from the 10th day after modeling (the treatment groups are shown in Table 3), and the time was calculated from the 10th day after modeling to count the mortality rate. The death situation of each group of experimental animals was counted and calculated daily. […] The survival rate is the percentage of the number of mice that survived accounting for the number of mice in the whole group. Results are shown in FIG. 6-1, FIG. 6-2 and Table 4. […] In FIG. 6-1 and FIG. 6-2, “##” represents that P value is less than 0.01 when the survival rate of administration group was compared with that of the sham operation group; “*” represents that P value is less than 0.05 when the survival rate of administration group was compared with that of the bleomycin group; “**” represents that P value is less than 0.01 when the survival rate of administration group was compared with that of bleomycin group; and “i.p.” refers to intraperitoneal injection.
The animal model of pulmonary fibrosis was prepared according to the method described in Example 2. The polypeptide treatment was started from the 10th day after modeling (the treatment groups are shown in Table 9), and the time was calculated from the 10th day after modeling to count the mortality rate. The mortality rate of each group of experimental animals was recorded and calculated daily. If none of the animals in a group died, the survival rate of the group is 100%. If all the animals in a group died, the survival rate is 0%. […] In FIG. 12, “##” represents that P value is less than 0.01 when the survival rate of the administration groups were compared with that of the sham operation group; “*” represents that P value is less than 0.05 and “**” represents that P value is less than 0.01 when the survival rate of the administration groups were compared with bleomycin group.

[3] = tested on: mice with bleomycin-induced pulmonary fibrosis; assay: Hydroxyproline content in lung of mice with pulmonary fibrosis; type: in vivo, C57BL/6 mice; conditions: 2 mg/kg i.p.; for hydroxyproline content (μg/mg protein): left lung lobes, chloramine-T method; for content of hydroxyproline in the lungs (in words): versus bleomycin group
Method: as §1
(§2) Hydroxyproline accounts for 13.4% (w/w) of collagen, and extremely small amount of elastin, while it is absent in other proteins. […] Pulmonary fibrosis models were prepared according to the method described in Example 2 and administered in groups according to Table 3. The content of hydroxyproline in the lobes of left lung of the animals was measured 28 days later, and the condition of pulmonary fibrosis was evaluated.
The specific method is as follows: the mice in the animal model prepared in Example 2 was feed in a SPF animal room and treated with polypeptide according to the dosing schedule of Table 3, and all left lobes of lung of the experimental animal was taken on the 21st day after the animal model was constructed and the wet weight was recorded. Then 10% (w/w) tissue homogenate was prepared by ultrasonic homogenization using physiological saline. About 150 μL of homogenate supernatant was taken, and 500 μL of alkali hydrolysate was added (provided by Hydroxyproline alkaline hydrolysis kit of Nanjing Jiancheng Bioengineering Technology Co., Ltd.). After vortex mixing, the mixture was treated with alkaline hydrolysis for 40 min under conditions of 120° C., 0.1 Kpa. After adjusting the pH value, the volume was held constant, and the supernatant was taken after performing activated carbon treatment. The hydroxyproline was determined according to the chloramine-T method (the method of the present example refers to the instruction provided with kit, which was purchased from Nanjing Jiancheng Bioengineering Technology Co., Ltd.). […] In FIG. 10, “##” represents that P value is less than 0.01 when comparing the content of hydroxyproline in the administration group with that in the sham operation group; and “*” represents that P value is less than 0.05 and“**” represents that P value is less than 0.01 when comparing the content of hydroxyproline in the administration group with that in bleomycin group.
as §2, with “collagen, and accounts for extremely small” for “collagen, and extremely small”, “in the all lobes of” for “in the lobes of”
The specific method is as follows: the mice in the animal model prepared in Example 2 was feed in an SPF animal room and treated with polypeptide according to the dosing schedule of Table 3, and all the left lobes of lung of the experimental animal was taken on the 21st day after the animal model was constructed and the wet weight was recorded. Then 10% (w/w) tissue homogenate was prepared by ultrasonic homogenization using physiological saline. About 150 μL of homogenate supernatant was taken, and 500 μL of alkali hydrolysate was added (provided by Hydroxyproline alkaline hydrolysis kit of Nanjing Jiancheng Bioengineering Technology Co., Ltd.). After vortex mixing, the mixture was treated with alkaline hydrolysis for 40 min under conditions of 120° C., 0.1 Kpa. […]

[4] = Table 3 groups: 2 mg/kg i.p., 10th to 28th day after modeling
[5] = Table 9 groups (S19-S21): 2 mg/kg i.p., 10th to 28th day after modeling
[6] = Table 9 groups (S19-S21): 2 mg/kg i.p.

| Compound | α-helicity (%) [1] | Survival rate (%) 7 days [2, 4] | Survival rate (%) 14 days [2, 4] | Survival rate (%) 21 days [2, 4] | Survival rate (%) 28 days [2, 4] | hydroxyproline content (μg/mg protein) ([3]; Table 3 groups) | α-helix ratio compared with polypeptide MR2 (in words) [1] | Survival rate (%) 7 days [2, 5] | Survival rate (%) 14 days [2, 6] | Survival rate (%) 21 days [2, 6] | Survival rate (%) 28 days [2, 6] | hydroxyproline content (μg/mg protein) ([3]; S19-S21 groups) | content of hydroxyproline in the lungs (in words) ([3]; S19-S21 groups) |
| --- | --- | --- | --- | --- | --- | --- | --- | --- | --- | --- | --- | --- | --- |
| CSCC[C@H](NC(=O)[C@H](CC(C)C)NC(=O)[C@@H](N)Cc1c[nH]cn1)C(=O)N[C@@H](C)C(=O)N[C@@H](CS)C(=O)N[C@@H](Cc1ccccc1)C(=O)N[C@H](C(=O)N[C@@H](CS)C(=O)N[C@@H](C)C(=O)N[C@@H](CCCCN)C(=O)N[C@@H](CCCCN)C(=O)N[C@@H](CC(C)C)C(=O)N[C@@H](CCCCN)C(=O)N[C@@H](CCCCN)C(=O)N[C@@H](CCCNC(=N)N)C(=O)O)[C@@H](C)O [MR2] (H-HLMACFTCAKKLKKR-OH; N-terminus and C-terminus assumed) | 0.0% | 100% | 93.33% | 73.33% | 66.67% | 0.9087 μg/mg protein |  |  |  |  |  |  |  |
| CSCC[C@@H]1NC(=O)[C@H](CC(C)C)NC(=O)[C@@](C)(N)CCCC=CCCC[C@@](C)(C(=O)N[C@@H](Cc2ccccc2)C(=O)N[C@H](C(=O)N[C@@H](CS)C(=O)N[C@@H](C)C(=O)N[C@@H](CCCCN)C(=O)N[C@@H](CCCCN)C(=O)N[C@@H](CC(C)C)C(=O)N[C@@H](CCCCN)C(=O)N[C@@H](CCCCN)C(=O)N[C@@H](CCCNC(=N)N)C(=O)O)[C@@H](C)O)NC(=O)[C@H](C)NC1=O [S1, S5-Leu-Met-Ala-S5-Phe-Thr-Cys-Ala-Lys-Lys-Leu-Lys-Lys-Arg] (H-[S5]LMA[S5]FTCAKKLKKR-OH; staple 1-5; N-terminus and C-terminus assumed) | 39.5% | 100% | 86.67% | 80% | 80% | 0.7087 μg/mg protein | significantly higher than that of polypeptide MR2 |  |  |  |  |  |  |
| CSCC[C@@H]1NC(=O)[C@@](C)(NC(=O)[C@@H](N)Cc2c[nH]cn2)CCCC=CCCC[C@@](C)(C(=O)N[C@H](C(=O)N[C@@H](CS)C(=O)N[C@@H](C)C(=O)N[C@@H](CCCCN)C(=O)N[C@@H](CCCCN)C(=O)N[C@@H](CC(C)C)C(=O)N[C@@H](CCCCN)C(=O)N[C@@H](CCCCN)C(=O)N[C@@H](CCCNC(=N)N)C(=O)O)[C@@H](C)O)NC(=O)[C@H](CS)NC(=O)[C@H](C)NC1=O [S2, His-S5-Met-Ala-Cys-S5-Thr-Cys-Ala-Lys-Lys-Leu-Lys-Lys-Arg] (H-H[S5]MAC[S5]TCAKKLKKR-OH; staple 2-6; N-terminus and C-terminus assumed) | 25.7% | 100% | 100% | 80% | 80% | 0.7063 μg/mg protein | significantly higher than that of polypeptide MR2 |  |  |  |  |  |  |
| CC(C)C[C@H](NC(=O)[C@H](CCCCN)NC(=O)[C@H](CCCCN)NC(=O)[C@H](C)NC(=O)[C@H](CS)NC(=O)[C@]1(C)CCCC=CCCC[C@](C)(NC(=O)[C@H](CC(C)C)NC(=O)[C@@H](N)Cc2c[nH]cn2)C(=O)N[C@@H](C)C(=O)N[C@@H](CS)C(=O)N[C@@H](Cc2ccccc2)C(=O)N1)C(=O)N[C@@H](CCCCN)C(=O)N[C@@H](CCCCN)C(=O)N[C@@H](CCCNC(=N)N)C(=O)O [S3, His-Leu-S5-Ala-Cys-Phe-S5-Cys-Ala-Lys-Lys-Leu-Lys-Lys-Arg] (H-HL[S5]ACF[S5]CAKKLKKR-OH; staple 3-7; N-terminus and C-terminus assumed) | 42.1% | 100% | 93.33% | 86.67% | 86.67% | 0.8287 μg/mg protein | significantly higher than that of polypeptide MR2 |  |  |  |  |  |  |
| S19: chimeric polypeptide Pep2-MR2, amino acid sequence SEQ ID NO: 19 (HLYVSPWGGHLMACFTCAKKLKKR; chimeric polypeptide Pep2-MR2 S19) |  |  |  |  |  |  |  | 100% | 100% | 90% | 90% | 0.5637 μg/mg protein | reduce hydroxyproline content |
| S20: chimeric polypeptide TAT-MR2, amino acid sequence SEQ ID NO: 20 (YGRKKRRQRRRGGHLMACFTCAKKLKKR; chimeric polypeptide TAT-MR2 S20) |  |  |  |  |  |  |  | 100% | 91.67% | 75% | 75% | 0.7443 μg/mg protein | reduce hydroxyproline content |
| S21: chimeric polypeptide Antp-MR2, amino acid sequence SEQ ID NO: 21 (RQIKIWFQNRRMKWKKGGHLMACFTCAKKLKKR; chimeric polypeptide Antp-MR2 S21) |  |  |  |  |  |  |  | 100% | 100% | 75% | 75% | 0.7488 μg/mg protein | reduce hydroxyproline content |

Reference: patent US20210179680A1, “POLYPEPTIDE, DERIVATIVES THEREOF, AND APPLICATION THEREOF IN PREPARATION OF DRUGS HAVING RESISTANCE TO PULMONARY FIBROSIS” (priority 2016, published 2021)
